Here are results for five compounds from patent publication US8951993B2, “Phosphorus containing compounds as protein kinase inhibitors” (Jiangsu Hansoh Pharmaceutical Co., Ltd., priority 2011, dated 2015).

SMILES strings stand for the structures. Read-outs that look alike come from different tables or passages of the source. A value given as a limit tells only on which side of the number the result lay.

The test system of one data set is Karpas299. Nature of the data set: Cell proliferation assay (MTS / BrdU), Karpas299. The class given is cell-based. The following applies: Homo sapiens, KARPAS-299; 72 hours, 2% FBS. As to the method:
(§1) Karpas299 and SU-DHL-1 cells were purchased from Deutsche Sammlung von Mikroorganismen and Zellkulturen (Germany). H2228 was purchased from American Type Culture Collection (USA). All cells were cultured in the recommended medium and serum concentration. Cells were maintained at 37° C. in a humidified atmosphere with 5% CO2. For ALK kinase phosphorylation, cells were seeded in 96-well plates overnight in medium supplemented with 10% fetal bovine serum […]. After 24 hours, the medium was removed and cells were cultured in serum-free medium at 37° C. in the presence of various concentrations of the test articles for 1 hour. After incubation with the tested articles, cells were washed once with HBSS supplemented with 1 mM Na3VO4 and protein lysates were generated. Subsequently, phosphorylation of ALK was assessed by a sandwich ELISA method using an immobilized anti-total-ALK antibody and an anti-phospho-ALK antibody (pY1604) as a detection antibody. IC50 value was calculated using median-effect method. (Chou 2006).
(§2) For cell proliferation assay, cells were seeded in 96-well pates at low density at 37° C. in medium supplemented with 10% FBS and after 24 hours were switched to low serum medium (2% FBS). Cells were further incubated in the presence of the test articles at various concentrations at 37° C. for 72 hours. Two assays were employed to determine the relative cell numbers. One is a 3-(4,5-dimethylthiazol-2-yl)-5-(3-carboxymethoxyphenyl)-2-(4-sulfophenyl)-2H-tetrazolium (MTS) assay using a CellTiter 96® Aqueous Non-Radioactive Cell Proliferation kit (Promega), and the other is a BrdU incorporation assay using a DELFIA® Cell Proliferation Kit (Perkin Elmer). IC50 value was calculated using median-effect method (Chou 2006).

The next data set deals with SU-DHL-1. Nature of the data set: Cell proliferation assay (MTS / BrdU), SU-DHL-1. Type of data set: cell-based. The following applies: Homo sapiens, 72 hours, 2% FBS. As to the method:
as §1, §2

The test system of a further data set is H2228. Nature of the data set: Cell proliferation assay (MTS / BrdU), H2228. The class given is cell-based. Particulars: Homo sapiens, NCI-H2228; 72 hours, 2% FBS. As to the method:
as §1, §2

Data set [1] in a line: Pharmacokinetic assay, intravenous and oral administration. The class given is in vivo, Sprague-Dawley rats or beagle dogs. Particulars: plasma; for half-life: after oral administration in rats or dogs; for bioavailability: oral administration in rats or dogs, read-out: oral bioavailabilty. As to the method:
The tested articles were given to Sprague-Dawley rats or beagle dogs by intravenous and oral administration. Plasma samples were prepared from blood samples which were collected at various time points. The plasma concentrations of the tested articles were determined by specific LC-MS/MS analytical methods. Pharmacokinetic parameters were calculated with WinNonlin®.

For data set [2], the target named is T1, ALK (Homo sapiens, UniProt Q9UM73). Description: ALK enzyme activity assay (HTRF KinEASE). Particulars: ATP 25 μM, 30° C. 30 minutes. Also on record: purchased Millipore Company (Billerica, Mass., USA). The class given is biochemical. As to the method:
ALK Enzyme Activity Assay:
ALK kinase was purchased from Millipore Company (Billerica, Mass., USA). HTRF®KinEASET™ was purchased from Cisbio Company (Bedford, Mass., USA). The assay was conducted according to the procedure provided in the assay kit. In brief, incubation was carried out in the kinase buffer containing ALK (0.3 ng/μL), ATP (25 μM), TK substrate-biotin (10 μM), DTT (1 mM), MgCl2 (5 mM), MnCl2 (5 mM) in the presence of the tested articles at various concentrations in 384-well plate at 30° C. for 30 minutes. The reaction was stopped by addition of Sa-XL665 in EDTA solution, and the phosphorylated substrate was detected with a proprietary phospho-specific monoclonal antibody labeled with Eu^3+-Cryptate and a proprietary biotinylated kinase substrate detected using XL665 labeled streptavidin. IC50 value was calculated using median-effect method (Chou 2006).
Target sequence in this assay (Q9UM73 19-1620): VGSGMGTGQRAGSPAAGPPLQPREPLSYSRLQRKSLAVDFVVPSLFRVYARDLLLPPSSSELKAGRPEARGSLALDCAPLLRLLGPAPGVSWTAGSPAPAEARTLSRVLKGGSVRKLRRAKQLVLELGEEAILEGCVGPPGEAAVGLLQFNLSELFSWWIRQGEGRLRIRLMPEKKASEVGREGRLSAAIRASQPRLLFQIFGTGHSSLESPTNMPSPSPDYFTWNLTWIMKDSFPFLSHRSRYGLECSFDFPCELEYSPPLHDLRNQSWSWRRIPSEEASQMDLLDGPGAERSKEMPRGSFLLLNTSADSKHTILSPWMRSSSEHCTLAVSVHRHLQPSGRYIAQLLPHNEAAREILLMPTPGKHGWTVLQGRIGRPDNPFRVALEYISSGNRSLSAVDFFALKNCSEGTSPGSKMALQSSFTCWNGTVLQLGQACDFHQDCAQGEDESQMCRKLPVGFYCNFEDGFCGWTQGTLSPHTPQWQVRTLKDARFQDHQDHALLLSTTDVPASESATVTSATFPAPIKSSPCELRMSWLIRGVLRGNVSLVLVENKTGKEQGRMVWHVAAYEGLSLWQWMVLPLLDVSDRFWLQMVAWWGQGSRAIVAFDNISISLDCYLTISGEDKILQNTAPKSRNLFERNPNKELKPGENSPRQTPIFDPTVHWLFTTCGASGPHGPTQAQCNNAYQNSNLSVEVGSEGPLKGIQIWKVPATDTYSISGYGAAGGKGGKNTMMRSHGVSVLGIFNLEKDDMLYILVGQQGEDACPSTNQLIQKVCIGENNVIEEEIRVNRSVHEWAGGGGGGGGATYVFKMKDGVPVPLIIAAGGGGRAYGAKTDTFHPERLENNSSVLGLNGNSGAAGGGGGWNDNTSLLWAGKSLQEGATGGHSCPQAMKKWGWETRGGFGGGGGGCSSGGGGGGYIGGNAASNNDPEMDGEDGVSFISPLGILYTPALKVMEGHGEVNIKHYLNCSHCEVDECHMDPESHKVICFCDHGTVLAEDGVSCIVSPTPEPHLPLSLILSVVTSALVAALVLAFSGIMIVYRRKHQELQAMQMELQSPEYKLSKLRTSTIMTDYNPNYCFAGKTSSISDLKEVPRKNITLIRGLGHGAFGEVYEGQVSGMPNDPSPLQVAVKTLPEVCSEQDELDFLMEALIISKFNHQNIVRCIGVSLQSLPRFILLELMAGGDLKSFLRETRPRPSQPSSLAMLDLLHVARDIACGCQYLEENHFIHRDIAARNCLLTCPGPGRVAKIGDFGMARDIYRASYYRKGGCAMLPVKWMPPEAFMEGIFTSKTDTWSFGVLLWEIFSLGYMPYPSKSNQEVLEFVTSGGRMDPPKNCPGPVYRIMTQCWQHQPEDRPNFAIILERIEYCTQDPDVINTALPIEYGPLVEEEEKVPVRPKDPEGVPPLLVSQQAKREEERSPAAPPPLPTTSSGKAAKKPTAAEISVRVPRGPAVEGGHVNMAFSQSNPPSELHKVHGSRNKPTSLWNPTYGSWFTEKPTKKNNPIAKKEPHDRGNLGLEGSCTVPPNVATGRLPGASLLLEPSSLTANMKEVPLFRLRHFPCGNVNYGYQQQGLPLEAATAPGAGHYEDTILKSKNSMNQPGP

Data set [3] addresses T1, ALK. Description: Inhibition of ALK phosphorylation (sandwich ELISA, pY1604), cell line not given. Type of data set: cell-based. Further details: fused on or other part: Q9HC35 (Echinoderm microtubule-associated protein-like 4). The following applies: 1 hour, serum-free. The protocol: as §1
Target sequence in this assay (Q9UM73 1058-1620 limits assumed): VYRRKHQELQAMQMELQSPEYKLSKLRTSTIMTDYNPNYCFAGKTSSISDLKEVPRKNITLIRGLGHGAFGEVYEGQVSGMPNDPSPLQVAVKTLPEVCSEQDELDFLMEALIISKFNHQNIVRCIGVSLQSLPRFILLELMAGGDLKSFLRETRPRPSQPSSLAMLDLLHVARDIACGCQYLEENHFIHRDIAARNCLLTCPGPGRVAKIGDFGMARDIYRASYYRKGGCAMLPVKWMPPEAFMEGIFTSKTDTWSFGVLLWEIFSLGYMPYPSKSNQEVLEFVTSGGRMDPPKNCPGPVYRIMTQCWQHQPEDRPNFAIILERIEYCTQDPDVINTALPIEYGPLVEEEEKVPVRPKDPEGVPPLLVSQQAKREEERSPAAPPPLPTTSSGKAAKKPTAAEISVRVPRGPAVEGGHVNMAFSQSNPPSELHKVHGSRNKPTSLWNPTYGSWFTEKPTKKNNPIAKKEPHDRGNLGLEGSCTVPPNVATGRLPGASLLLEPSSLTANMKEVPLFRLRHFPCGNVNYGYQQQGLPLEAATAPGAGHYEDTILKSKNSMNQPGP
Data set [4] concerns the target T1, ALK. Description: Inhibition of ALK phosphorylation (sandwich ELISA, pY1604) in Karpas299 cells. The class given is cell-based. Also on record: NPM1 portion (fusion partner, nucleophosmin, P06748); host or cells: Karpas299; SU-DHL-1; the other entry of the earlier key: NPM1 (P06748, Nucleophosmin). The following applies: 1 hour, serum-free. As to the method: as §1
Target sequence in this assay (Q9UM73 with tags, fused parts or gaps): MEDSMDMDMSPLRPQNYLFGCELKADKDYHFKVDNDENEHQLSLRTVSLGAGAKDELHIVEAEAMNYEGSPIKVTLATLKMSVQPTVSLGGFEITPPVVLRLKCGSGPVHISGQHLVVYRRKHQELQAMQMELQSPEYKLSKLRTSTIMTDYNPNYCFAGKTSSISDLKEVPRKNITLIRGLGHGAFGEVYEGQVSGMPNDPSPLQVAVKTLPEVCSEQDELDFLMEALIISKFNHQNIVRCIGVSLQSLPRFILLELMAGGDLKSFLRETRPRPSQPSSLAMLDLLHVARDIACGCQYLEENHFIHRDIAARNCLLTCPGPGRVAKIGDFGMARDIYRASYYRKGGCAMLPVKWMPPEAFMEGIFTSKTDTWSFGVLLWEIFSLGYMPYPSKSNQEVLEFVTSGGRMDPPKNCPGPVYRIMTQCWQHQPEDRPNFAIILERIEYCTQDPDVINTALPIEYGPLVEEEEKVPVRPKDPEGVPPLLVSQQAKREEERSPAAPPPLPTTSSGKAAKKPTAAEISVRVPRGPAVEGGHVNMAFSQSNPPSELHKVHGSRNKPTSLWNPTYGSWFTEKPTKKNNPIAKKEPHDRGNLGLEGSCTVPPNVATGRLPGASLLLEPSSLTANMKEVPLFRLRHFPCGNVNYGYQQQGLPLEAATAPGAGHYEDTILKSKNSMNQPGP

The target in data set [5] is T1, ALK. Description: Inhibition of ALK phosphorylation (sandwich ELISA, pY1604) in SU-DHL-1 cells. Also on record: NPM1 portion (fusion partner, nucleophosmin, P06748); host or cells: Karpas299; SU-DHL-1; the other entry of the earlier key: NPM1 (P06748, Nucleophosmin). The following applies: 1 hour, serum-free. Type of data set: cell-based. The protocol: as §1
The next data set concerns the target T2, ALK wild type (Homo sapiens, UniProt Q9UM73).
T2 construct: purchased Carna Biosciences (Chuo-ku, Kobe, Japan)
Description: Off-chip mobility shift assay (Carna Biosciences), ALK wild type. The class given is biochemical. The protocol:
(§3) The activities of ALK wild type, its mutant F1174L, R1275Q, L1196M and EML4-ALK, NPM1-ALK were also determined using off-chip mobility shift assay at Carna Biosciences (Chuo-ku, Kobe, Japan). In brief, 5 μL of ×4 compound solution, 5 μL of ×4 substrate/ATP/metal solution and 10 μL of ×2 kinase solution were prepared with assay buffer (20 mM HEPES, 0.01% Triton X-100, 2 mM DTT, pH 7.5) and mixed and incubated in a well of polypropylene 384 well microplate for 1 or 5 hours (depending on the enzyme). The ATP concentration used in the reaction was 50 μM for ALK wild type, F1174L mutant, EML4-ALK and NPM1-ALK, and 100 μM for R1275Q and 72 μM for L1196M. An aliquot of 60 μL of termination buffer (QuickScout Screening Assist MSA, Carna Biosciences) was added to each well to terminate the reactions. The reaction mixture was applied to LabChip3000 system (Caliper Life Science), and the product and substrate peptide peaks were separated and quantitated. The kinase reaction was evaluated by the product ratio calculated from peak heights of product (P) and substrate (S) peptides (P/(P+S)). IC50 value was calculated from concentration vs. % Inhibition curves by fitting to a four parameter logistic curve.

The target of the next data set is T3, ALK mutant F1174L (Homo sapiens, UniProt Q9UM73, F1174L).
T3 construct: purchased Carna Biosciences (Chuo-ku, Kobe, Japan)
Nature of the data set: Off-chip mobility shift assay (Carna Biosciences), ALK F1174L. Type of data set: biochemical. As to the method:
as §3

A further data set deals with T4, ALK mutant R1275Q (Homo sapiens, UniProt Q9UM73, R1275Q).
T4 construct: purchased Carna Biosciences (Chuo-ku, Kobe, Japan)
Nature of the data set: Off-chip mobility shift assay (Carna Biosciences), ALK R1275Q. Type of data set: biochemical. The protocol: as §3

Another data set addresses T5, ALK mutant L1196M (Homo sapiens, UniProt Q9UM73, L1196M).
T5 construct: purchased Carna Biosciences (Chuo-ku, Kobe, Japan)
Description: Off-chip mobility shift assay (Carna Biosciences), ALK L1196M. The class given is biochemical. The protocol: as §3

The target in a further data set is T6, EML4-ALK (Homo sapiens, UniProt Q9UM73).
T6 construct: purchased Carna Biosciences (Chuo-ku, Kobe, Japan); the other entry of the earlier key: EML4 (Q9HC35, Echinoderm microtubule-associated protein-like 4)
Nature of the data set: Off-chip mobility shift assay (Carna Biosciences), EML4-ALK. Type of data set: biochemical. The protocol:
as §3

A further data set deals with T7, NPM1-ALK (Homo sapiens, UniProt Q9UM73).
T7 construct: purchased Carna Biosciences (Chuo-ku, Kobe, Japan); the other entry of the earlier key: NPM1 (P06748, Nucleophosmin)
Description: Off-chip mobility shift assay (Carna Biosciences), NPM1-ALK. The class given is biochemical. The protocol: as §3

Data set [6] concerns lung cancer cell line H2228. Nature of the data set: H2228 xenograft studies in athymic mice. Type of data set: in vivo, athymic mice (nude/nud mouse). The text has this:
Xenograft model was developed in athymic mice (nude/nud mouse) with lung cancer cell line H2228 purchased from the American Type Culture Collection Company (Manassas, Va., USA). In brief, H2228 cells (1×10^7) were implanted s.c. into the hind flank region of each mouse and allowed to grow to the designated size (c.a. 150-200 mm^3) before administration of the tested articles. The tested articles were given orally at various dose levels twice daily for 10-14 days. Tumor volume and body weight were measured during the experiments. Tumor regression values were determined using the standard approach.

T6 sequence (Q9UM73 with tags, fused parts or gaps): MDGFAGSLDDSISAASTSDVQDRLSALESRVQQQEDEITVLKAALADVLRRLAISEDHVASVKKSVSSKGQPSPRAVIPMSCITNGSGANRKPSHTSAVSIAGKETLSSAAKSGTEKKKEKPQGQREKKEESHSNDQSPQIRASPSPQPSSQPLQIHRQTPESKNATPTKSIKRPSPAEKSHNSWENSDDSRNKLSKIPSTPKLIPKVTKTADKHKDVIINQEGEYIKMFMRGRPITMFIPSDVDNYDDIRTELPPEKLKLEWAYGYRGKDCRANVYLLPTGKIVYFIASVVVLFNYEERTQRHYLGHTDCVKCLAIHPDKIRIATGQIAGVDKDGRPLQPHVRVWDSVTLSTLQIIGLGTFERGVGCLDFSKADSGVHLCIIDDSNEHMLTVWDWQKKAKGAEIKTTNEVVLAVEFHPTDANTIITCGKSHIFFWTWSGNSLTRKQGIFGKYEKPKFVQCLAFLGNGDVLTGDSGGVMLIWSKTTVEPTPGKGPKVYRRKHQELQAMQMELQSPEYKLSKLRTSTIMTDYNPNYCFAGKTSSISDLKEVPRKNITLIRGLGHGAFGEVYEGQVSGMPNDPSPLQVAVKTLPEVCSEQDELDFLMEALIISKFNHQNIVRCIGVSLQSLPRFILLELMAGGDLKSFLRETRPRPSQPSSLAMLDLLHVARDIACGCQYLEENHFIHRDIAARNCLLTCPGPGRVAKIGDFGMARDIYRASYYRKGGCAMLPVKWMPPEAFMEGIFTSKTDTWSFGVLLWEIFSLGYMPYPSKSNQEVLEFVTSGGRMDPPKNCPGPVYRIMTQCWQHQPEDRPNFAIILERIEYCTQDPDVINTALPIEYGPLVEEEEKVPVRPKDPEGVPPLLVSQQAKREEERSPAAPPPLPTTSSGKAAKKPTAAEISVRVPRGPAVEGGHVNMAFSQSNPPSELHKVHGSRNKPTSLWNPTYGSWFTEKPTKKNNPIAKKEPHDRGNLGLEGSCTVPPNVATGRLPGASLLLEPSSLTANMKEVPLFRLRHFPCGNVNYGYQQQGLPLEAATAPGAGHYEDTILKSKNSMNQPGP
T3 sequence (Q9UM73 19-1620 F1174L): as the sequence (Q9UM73 19-1620) above, with F1156L counted along it
T4 sequence (Q9UM73 19-1620 R1275Q): as the sequence (Q9UM73 19-1620) above, with R1257Q counted along it
T5 sequence (Q9UM73 19-1620 L1196M): as the sequence (Q9UM73 19-1620) above, with L1178M counted along it
T2 sequence (Q9UM73 19-1620): as the sequence (Q9UM73 19-1620) above

For `CC(Oc1cc(-c2ccc(P(C)(C)=O)cc2)cnc1N)c1c(Cl)ccc(F)c1Cl` (centres unmarked) [Example 1, 3-[1-(2,6-dichloro-3-fluoro-phenyl)ethoxy]-5-(4-dimethylphosphorylphenyl)pyridin-2-amine], the IC50 with Karpas299 was 0.1 to 0.5 µM; in the data set on SU-DHL-1, < 0.1 µM; in the data set on H2228 it was < 0.1 µM; against ALK [2], 0.1 to 0.5 µM; against ALK [3], < 0.5 µM; against ALK [4], < 0.1 µM. In data set [1], the half-life is > 3 h. Moreover, the bioavailability in [1] is > 20%.
Consider `CC(Oc1cc(-c2cnn(C3CCN(CP(C)(C)=O)CC3)c2)cnc1N)c1c(Cl)ccc(F)c1Cl` (centres unmarked) [Example 2, 3-[1-(2,6-dichloro-3-fluoro-phenyl)ethoxy]-5-[1-[1-(dimethylphosphorylmethyl)-4-piperidyl]pyrazol-4-yl]pyridin-2-amine], for which the results for the IC50 in the data set with H2228, against ALK [2] and at ALK [3] were 1 to 5 µM, < 0.1 µM and < 0.5 µM, respectively.
As to `COc1cc(P(C)(C)=O)ccc1-c1cnc(N)c(OC(C)c2c(Cl)ccc(F)c2Cl)c1` (centres unmarked) [Example 8, 3-[1-(2,6-dichloro-3-fluoro-phenyl)ethoxy]-5-(4-dimethylphosphoryl-2-methoxy-phenyl)pyridin-2-amine], the IC50 in the data set on Karpas299 is < 0.1 µM; in the data set on SU-DHL-1, < 0.1 µM; in the data set with H2228 it was < 0.1 µM; on ALK [2] it was < 0.1 µM; at ALK [4] it was < 0.1 µM; against ALK [5], < 0.05 µM. Further, the half-life in data set [1] is > 3 h. The bioavailability in data set [1] is > 20%.
Consider `C[C@@H](Oc1cc(-c2ccc(P(C)(C)=O)cc2)cnc1N)c1c(Cl)ccc(F)c1Cl` [Example 23, 3-[(1R)-1-(2,6-dichloro-3-fluoro-phenyl)ethoxy]-5-(4-dimethylphosphorylphenyl)pyridin-2-amine], for which the IC50 is < 0.1 µM in the data set on Karpas299; < 0.1 µM in the data set on SU-DHL-1; < 0.1 µM in the data set on H2228; 0.1 to 0.5 µM on ALK [2]; < 0.05 µM at ALK [3]; < 0.1 µM at ALK [4]. In addition, the IC50 against ALK [5] is < 0.05 µM.
Take `COc1cc(P(C)(C)=O)ccc1-c1cnc(N)c(O[C@H](C)c2c(Cl)ccc(F)c2Cl)c1` [Example 24, 3-[(1R)-1-(2,6-dichloro-3-fluoro-phenyl)ethoxy]-5-(4-dimethylphosphoryl-2-methoxy-phenyl)pyridin-2-amine]: the IC50 on ALK wild type (footnote #: ALK wild type, read-out: IC50 ALK Kinase (# ALK wild type)) is < 0.1 µM; on ALK wild type (mobility shift, ATP 50 μM, read-out: IC50 ALK wild type) it was < 0.05 µM; at ALK mutant F1174L (footnote #: F1174L, read-out: IC50 ALK Kinase (# mutant F1174L)) it was < 0.1 µM; on ALK mutant F1174L (mobility shift, ATP 50 μM, read-out: IC50 ALK F1174L) it was < 0.05 µM; on ALK mutant R1275Q (footnote #: R1275Q, read-out: IC50 ALK Kinase (# mutant R1275Q)), < 0.1 µM; on ALK mutant R1275Q (mobility shift, ATP 100 μM, read-out: IC50 ALK R1275Q) it was < 0.05 µM. Further, the IC50 at ALK mutant L1196M (footnote #: L1196M, read-out: IC50 ALK Kinase (# mutant L1196M)) was < 0.1 µM; on ALK mutant L1196M (mobility shift, ATP 72 μM, read-out: IC50 ALK L1196M), < 0.05 µM; on EML4-ALK (footnote #: EML4-ALK, read-out: IC50 ALK Kinase (# EML4-ALK)) it was < 0.1 µM; on EML4-ALK (mobility shift, ATP 50 μM, read-out: IC50 EML4-ALK) it was < 0.05 µM; on NPM1-ALK (footnote #: NPM1-ALK, read-out: IC50 ALK Kinase (# NPM1-ALK)), < 0.1 µM; at NPM1-ALK (mobility shift, ATP 50 μM, read-out: IC50 NPM1-ALK), < 0.05 µM. Besides, the IC50 with Karpas299 was < 0.1 µM; in the data set on SU-DHL-1 it was < 0.1 µM; in the data set with H2228, < 0.1 µM; against ALK [3], < 0.05 µM; against ALK [4], < 0.1 µM; on ALK [5], < 0.05 µM. In addition, the results for the “inhibition of tumor growth compared to the vehicle control” value in [6] (20 mg/kg oral BID) and in data set [6] (60 mg/kg oral BID) were 79% and 93%, respectively. Further, the “reduced the tumor size” value in [6] (14 days oral dosing at 60 mg/kg (BID)) is reported as “approximately 80%”.
